Assay: excess molar enthalpy (molar enthalpy of mixing); xn = mol fraction of the nth substance listed
Details: Liquid, Flow calorimetry

CC(C)(C)O [2-methylpropan-2-ol] + COC(=O)OC
excess molar enthalpy [kJ/mol], 1000 kPa
Details | 298.15 K | 328.15 K
x2 = 0.05 | 0.536 | 0.521
x2 = 0.1 | 0.993 | 0.956
x2 = 0.15 | 1.38 | 1.34
x2 = 0.2 | 1.69 | 1.67
x2 = 0.25 | 1.958 | 1.933
x2 = 0.3 | 2.16 | 2.157
x2 = 0.35 | 2.318 | 2.325
x2 = 0.4 | 2.447 | 2.44
x2 = 0.45 | 2.523 | 2.519
x2 = 0.5 | 2.553 | 2.545
x2 = 0.55 | 2.531 | 2.525
x2 = 0.6 | 2.458 | 2.465
x2 = 0.65 | 2.362 | 2.353
x2 = 0.7 | 2.206 | 2.2
x2 = 0.75 | 1.982 | 1.964
x2 = 0.8 | 1.72 | 1.72
x2 = 0.9 | 1.05 | 1.03
x2 = 0.95 | 0.562 | 0.537

CCC(C)O (stereo unspecified) [butan-2-ol] + COC(=O)OC
Details | excess molar enthalpy [kJ/mol]
298.15 K, 1000 kPa, x2 = 0.05 | 0.528
298.15 K, 1000 kPa, x2 = 0.1 | 0.991
298.15 K, 1000 kPa, x2 = 0.15 | 1.37
298.15 K, 1000 kPa, x2 = 0.2 | 1.68
298.15 K, 1000 kPa, x2 = 0.25 | 1.92
298.15 K, 1000 kPa, x2 = 0.3 | 2.106
298.15 K, 1000 kPa, x2 = 0.35 | 2.239
298.15 K, 1000 kPa, x2 = 0.4 | 2.322
298.15 K, 1000 kPa, x2 = 0.45 | 2.37
298.15 K, 1000 kPa, x2 = 0.5 | 2.377
298.15 K, 1000 kPa, x2 = 0.55 | 2.341
298.15 K, 1000 kPa, x2 = 0.6 | 2.262
298.15 K, 1000 kPa, x2 = 0.65 | 2.145
298.15 K, 1000 kPa, x2 = 0.7 | 1.991
298.15 K, 1000 kPa, x2 = 0.75 | 1.799
298.15 K, 1000 kPa, x2 = 0.8 | 1.532
298.15 K, 1000 kPa, x2 = 0.9 | 0.9005
298.15 K, 1000 kPa, x2 = 0.95 | 0.4802
313.15 K, 100 kPa, x2 = 0.051 | 0.517
313.15 K, 100 kPa, x2 = 0.102 | 0.998
313.15 K, 100 kPa, x2 = 0.148 | 1.35
313.15 K, 100 kPa, x2 = 0.202 | 1.72
313.15 K, 100 kPa, x2 = 0.251 | 1.99
313.15 K, 100 kPa, x2 = 0.352 | 2.388
313.15 K, 100 kPa, x2 = 0.4 | 2.513
313.15 K, 100 kPa, x2 = 0.45 | 2.591
313.15 K, 100 kPa, x2 = 0.501 | 2.616
313.15 K, 100 kPa, x2 = 0.551 | 2.599
313.15 K, 100 kPa, x2 = 0.6 | 2.543
313.15 K, 100 kPa, x2 = 0.649 | 2.432
313.15 K, 100 kPa, x2 = 0.701 | 2.265
313.15 K, 100 kPa, x2 = 0.749 | 2.059
313.15 K, 100 kPa, x2 = 0.799 | 1.78
313.15 K, 100 kPa, x2 = 0.849 | 1.44
313.15 K, 100 kPa, x2 = 0.899 | 1.04
313.15 K, 100 kPa, x2 = 0.951 | 0.536
313.15 K, 1000 kPa, x2 = 0.051 | 0.53
313.15 K, 1000 kPa, x2 = 0.098 | 0.98
313.15 K, 1000 kPa, x2 = 0.149 | 1.37
313.15 K, 1000 kPa, x2 = 0.198 | 1.72
313.15 K, 1000 kPa, x2 = 0.251 | 1.998
313.15 K, 1000 kPa, x2 = 0.348 | 2.383
313.15 K, 1000 kPa, x2 = 0.4 | 2.505
313.15 K, 1000 kPa, x2 = 0.451 | 2.584
313.15 K, 1000 kPa, x2 = 0.501 | 2.612
313.15 K, 1000 kPa, x2 = 0.551 | 2.603
313.15 K, 1000 kPa, x2 = 0.6 | 2.535
313.15 K, 1000 kPa, x2 = 0.649 | 2.438
313.15 K, 1000 kPa, x2 = 0.701 | 2.268
313.15 K, 1000 kPa, x2 = 0.749 | 2.064
313.15 K, 1000 kPa, x2 = 0.799 | 1.78
313.15 K, 1000 kPa, x2 = 0.85 | 1.45
313.15 K, 1000 kPa, x2 = 0.899 | 1.04
313.15 K, 1000 kPa, x2 = 0.951 | 0.529
313.15 K, 10000 kPa, x2 = 0.051 | 0.566
313.15 K, 10000 kPa, x2 = 0.1 | 1.04
313.15 K, 10000 kPa, x2 = 0.15 | 1.44
313.15 K, 10000 kPa, x2 = 0.2 | 1.78
313.15 K, 10000 kPa, x2 = 0.25 | 2.048
313.15 K, 10000 kPa, x2 = 0.301 | 2.261
313.15 K, 10000 kPa, x2 = 0.35 | 2.42
313.15 K, 10000 kPa, x2 = 0.399 | 2.529
313.15 K, 10000 kPa, x2 = 0.451 | 2.595
313.15 K, 10000 kPa, x2 = 0.501 | 2.616
313.15 K, 10000 kPa, x2 = 0.551 | 2.585
313.15 K, 10000 kPa, x2 = 0.599 | 2.518
313.15 K, 10000 kPa, x2 = 0.65 | 2.384
313.15 K, 10000 kPa, x2 = 0.751 | 1.983
313.15 K, 10000 kPa, x2 = 0.801 | 1.73
313.15 K, 10000 kPa, x2 = 0.851 | 1.4
313.15 K, 10000 kPa, x2 = 0.901 | 0.994
313.15 K, 10000 kPa, x2 = 0.949 | 0.533
328.15 K, 1000 kPa, x2 = 0.05 | 0.535
328.15 K, 1000 kPa, x2 = 0.1 | 1.02
328.15 K, 1000 kPa, x2 = 0.15 | 1.44
328.15 K, 1000 kPa, x2 = 0.201 | 1.79
328.15 K, 1000 kPa, x2 = 0.25 | 2.08
328.15 K, 1000 kPa, x2 = 0.302 | 2.316
328.15 K, 1000 kPa, x2 = 0.352 | 2.48
328.15 K, 1000 kPa, x2 = 0.402 | 2.596
328.15 K, 1000 kPa, x2 = 0.45 | 2.667
328.15 K, 1000 kPa, x2 = 0.502 | 2.693
328.15 K, 1000 kPa, x2 = 0.551 | 2.661
328.15 K, 1000 kPa, x2 = 0.603 | 2.583
328.15 K, 1000 kPa, x2 = 0.653 | 2.47
328.15 K, 1000 kPa, x2 = 0.7 | 2.309
328.15 K, 1000 kPa, x2 = 0.751 | 2.075
328.15 K, 1000 kPa, x2 = 0.802 | 1.79
328.15 K, 1000 kPa, x2 = 0.9 | 1.057
328.15 K, 1000 kPa, x2 = 0.95 | 0.5627
